Assays:
Assay type in all cases: functional, organism-based
Plasmodium falciparum [1] = experiment: Antimalarial activity against drug-sensitive Plasmodium falciparum NF54 by SYBR green-based assay
Plasmodium falciparum [2] = experiment: Antimalarial activity against multidrug-resistant Plasmodium falciparum K1 by SYBR green-based assay
Plasmodium falciparum [3] = experiment: Antimalarial activity against multidrug-resistant Plasmodium falciparum W2 by SYBR green-based assay

SMILES | IC50 (Plasmodium falciparum [1]) | IC50 (Plasmodium falciparum [2]) | IC50 (Plasmodium falciparum [3])
FC(F)(F)c1cc(Nc2ccnc3ccnn23)c2ncccc2c1 | 42 nM | 18 nM | –
c1cnc2c(Nc3ccnc4ccnn34)cccc2c1 | 5.3 nM | 7.8 nM | –
c1cnc2c(Oc3ccnc4ccnn34)cccc2c1 | > 2000 nM | > 2000 nM | –
COc1cc(C)c2c(Oc3cccc(C(F)(F)F)c3)c(OC)cc(NC(C)CCCN)c2n1 (stereo not given) [TAFENOQUINE] | – | – | 217 nM
Cc1cc(Nc2ccnc3ccnn23)c2ncccc2c1 | 63 nM | 38 nM | –
Cc1cc(Nc2cccc3cccnc23)n2nccc2n1 | < 3.9 nM | 6.7 nM | –
Cc1ccc2cccc(Nc3ccnc4ccnn34)c2n1 | 1700 nM | 1200 nM | –
COc1cc(NC(C)CCCN)c2ncccc2c1 (stereo not given) [PRIMAQUINE] | – | – | 1470 nM
c1cnc2c(Nc3ccnc4ncnn34)cccc2c1 | 1400 nM | 840 nM | –
C[C@@H]1CC[C@H]2[C@@H](C)C(=O)O[C@@H]3O[C@@]4(C)CC[C@@H]1[C@]32OO4 [ARTEMISININ] | 7 nM | – | –
N#Cc1cnn2c(Nc3cccc4cccnc34)ccnc12 | 71 nM | 51 nM | –
Cc1nc2cccc(Nc3cccc4cccnc34)c2o1 | 1300 nM | 1600 nM | –
Cc1nccc(Nc2cccc3cccnc23)n1 | > 500 nM | > 500 nM | –
Cc1cc(Nc2cccc3cccnc23)n2ncnc2n1 | 880 nM | 760 nM | –
Fc1cc(Nc2ccnc3ccnn23)c2ncccc2c1 | 3.9 nM | 3.9 nM | –
c1cc(Nc2ccnc3ccnn23)c2ccncc2c1 | 1200 nM | 1600 nM | –
Cc1ccc2cccnc2c1Nc1ccnc2ccnn12 | > 2000 nM | > 2000 nM | –
Cc1nn2c(Nc3cccc4cccnc34)c(C#N)cnc2c1C | 26 nM | 27 nM | –
O=C1C(O)=C([C@H]2CC[C@H](c3ccc(Cl)cc3)CC2)C(=O)c2ccccc21 [ATOVAQUONE] | – | 2.3 nM | –
c1cc(Nc2ccnc3ccnn23)c2c(c1)OCCO2 | > 2000 nM | > 2000 nM | –
COc1cc(Nc2ccnc3ccnn23)c2ncccc2c1 | 14 nM | 26 nM | –
N#Cc1cnc2cc(C3CC3)nn2c1Nc1cccc2cccnc12 | 1600 nM | 2000 nM | –
